Measured values reported in patent publication US20060171983A1, “Use of Vitamin D receptor activators or Vitamin D analogs to treat cardiovascular disease” (priority 2003, published 2006).
Entries after “also recorded” stand apart in the source; their conditions may differ. Where two headings read alike, the source gives them in different places.

Columns and labels:
[1] = Observational cohort study of hospitalization outcomes in hemodialysis patients; format: in vivo, human; settings: for median number of days spent in the hospital (hospital days per year) / median number of hospitalizations in a year: hemodialysis patients, FIG. 2; for fewer hospital days compared to the No Vitamin D group / fewer hospitalizations compared to the No Vitamin D group: regression analysis, FIG. 3
Source text: This study was expanded to include patients who received no Vitamin D receptor activator treatment. [“Improved hospitalization outcomes in hemodialysis patients treated with paricalcitol.” J. Melnick, et al., abstract book from World Congress of Nephrology, Jun. 8-12, 2003, Berlin.

PAI-1 [2] = assay: PAI-1 Western blot in primary culture of human coronary artery smooth muscle cells; format: cell-based; settings: 24 hr
Protocol: Human coronary artery smooth muscle cells were incubated with paricalcitol or calcitriol at the indicated concentration for 24 hr at 37° C. Samples were solubilized in SDS-PAGE sample buffer, and the protein content in each sample was determined by the Bio-Rad dye-binding protein assay. Samples were resolved by SDS-PAGE using a 4-12% gel, and proteins were electrophoretically transferred to PVDF membrane for Western blotting. The membrane was blotted for 1 h at 25° C. with 5% nonfat dry milk in PBS-T and then incubated with a mouse anti-PAI-1 monoclonal antibody in PBS-T overnight at 4° C. The membrane was washed with PBS-T and incubated with a horseradish peroxidase-labeled […] antibody for 1 h at 25° C. The membrane was then incubated with detection reagent (SuperSignal WestPico). The specific bands were visualized by exposing the paper to Kodak BioMax films.

human CASMC = assay: 45Ca uptake into primary culture of human coronary artery smooth muscle cells
Protocol: Primary cultured human CASMC were grown to >80% confluence and used within five passages. Cells were treated with drugs for 5 days in the appropriate medium, and then changed back to base medium (N1: DMEM containing 1.8 mM Ca^+2 and 0.9 mM PO−4) containing 0.2 μCi/ml ^45Ca for 24 hr. Afterwards, cells were washed with PBS three times and radioactivity measured by liquid scintillation.

[3] = system: bovine vascular smooth muscle cells (SMC); settings: 10^-7 to 10^-9 M, in vitro; cited from earlier work
[4] = system: renin mRNA expression in As4.1-hVDR cells; assay: Northern blot of renin mRNA expression in As4.1-hVDR cells; format: cell-based
Source text: (§1) Using an in vitro cell culture system, the activity of paricalcitol to suppress renin gene expression was examined using previously published techniques (1,25-Dihydroxyvitamin D3 is a negative endocrine regulator of the renin-angiotensin system, J. Clin. Invest., July 2002). […] This inhibitory effect is confirmed by renin promoter-luciferase reporter assays, which examine the activity of paricalcitol to suppress renin gene transcription.
(§2) In the present study, an investigation was made of the in vitro and in vivo activity of paricalcitol, a FDA-approved low calcemic vitamin D analog, to inhibit renin biosynthesis. To this end, As4.1-hVDR cells, a JG cell-like cell line stably transfected with human VDR, was treated with paricalcitol or 1,25(OH)2D3 at doses ranging from 10^−10 to 10^−7 M for 24 hours, and its renin-inhibiting activity was assessed by Northern blot analyses; the cells were also transfected with renin gene promoter-luciferase reporter plasmid, and luciferase activity was determined in the presence and absence of paricalcitol or 1,25(OH)2D3.

renin gene promoter = assay: Renin promoter-luciferase reporter assay; format: cell-based
Source text: as §1, §2

24(OH)ase = assay: Effect of drugs on the expression of 24(OH)ase; format: cell-based; settings: relative to calcitriol
Protocol: Two observations may be noted in these studies: (1) 100% inhibition of growth was never achieved even at 1 μM of any of the test compound. Confocal microscopy studies confirm that, although these drugs are potent in inducing the translocation of VDR from cytoplasm to nucleus, not all cells respond to VDRAs even after 2 h of exposure, which may explain the <100% inhibition. […] Paricalcitol is usually dosed approximately 4 fold higher than calcitriol in the clinical situation, which may translate into a 4-fold higher potency in regulating the function of smooth muscle cells.

[5] = Historical cohort of vascular access changes in HD patients with AV fistula; format: in vivo, human
Protocol: Methods: A historical cohort of 2112 adult patients new to HD, with an AV fistula as the initial primary vascular access were followed over a 35-month period (January 1999 thru November 2001) using a dialysis provider database. Patients were treated with Zemplar or no vitamin D therapy; patients receiving Zemplar therapy received at least 10 doses and remained on the same therapy. Descriptive summary statistics were used to summarize baseline characteristics and the total number of vascular access changes per year between treatment modalities. In addition, regression models were used to evaluate the association between Zemplar or no vitamin D therapy and the total number of vascular access changes per year.

[6] = Vascular calcification in 5/6 nephrectomized uremic rats; format: in vivo, rat; settings: for elevation of iCa: 0.67 μg/kg; for Ca content in aorta compared to vehicle / phosphorus content in aorta compared to vehicle / 45Ca uptake in aorta rings compared to vehicle: 0.67 μg/kg i.p. 3 times/week for 2 weeks; for 45Ca uptake in aorta rings compared to vehicle: rings 3 days in 45Ca
Protocol: The 5/6 nephrectomized rats were obtained from Charles River Labs. (Wilmington, Mass.). Two weeks after nephrectomy, rats were put on a diet containing 0.9% phosphorous and 0.6% calcium for 4 weeks, followed by treatment with vehicle (5% ethanol+95% propylene glycol, 0.4 ml/kg), paricalcitol or doxercalciferol at 0.67 μg/kg, i.p., 3 times/week, for 2 weeks. Twenty-four hours after the last dosing, blood was collected via tail vein under ketamine anesthesia (50 mg/kg) and aorta collected for calcification studies. […] After the aortas were removed in a sterile manner from the rats, the aventitia was gently removed and each aorta was washed three times with medium. A segment of each aorta was processed for calcium and phoshphorus determination. A separate portion of each aorta was denuded, cut into 2-3-mm rings and placed in DMEM containing 0.2 μCi/ml ^45Ca for 3 days at 37° C. Afterwards, aortic rings were washed, dried, weighed, and then dissolved to determine radioactivity. […] Both paricalcitol and doxercalciferol at 0.67 μg/kg elevated iCa (˜25%) and suppressed PTH (>90%).

CYP24A1 = CYP24A1 mRNA expression in human CASMC (control); format: cell-based; settings: dose-dependent manner
PAI-1 [7] = assay: PAI-1 mRNA expression in human CASMC (control); format: cell-based; settings: dose-dependent manner
[8] = format: in vivo, rat
Protocol: It is clinically important to suppress elevated serum PTH levels in ESRD patients with established secondary hyperparathyroidism (SHPT) independent of hypercalcemia. Moreover, the 5/6 uremic rat model has effectively predicted the clinical profile of vitamin D analogues with respect to PTH and hypercalcemia. Thus, a direct comparison was conducted of paricalcitol (PARI) and doxercalciferol (DOX) in male Sprague Dawley rats subjected to 5/6 nephrectomy (surgical ablation) placed on 4 weeks of a high phosphorous diet (0.9% phos., 0.6% Ca) to establish SHPT. On Day 0, rats received vehicle (VEH; 5% ethanol, 95% propylene glycol; 0.4 ml/kg; IP) or drug (0.083, 0.17, 0.33, 0.66 mcg/kg; n=7-10/group) 3 times/week for 12 days. Blood samples were collected 24 hr post dose (Day 13). Day 0 values (mean±SEM) for: creatinine (VEH vs sham) were 1.02±0.05 vs 0.48±0.01 mg/dL; PTH, 1320±185 vs 178±11 pg/ml; blood ionized calcium (iCa; 1.26±0.01 vs 1.30±0.01 mmol/L); phosphorous (8.70±0.34 vs 7.36±0.09 mg/dL). In VEH, the ratio of Day 13/Day 0 iCa values declined to 0.93±0.02 vs 1.02±0.01 for sham; PTH and phosphorous tended to increase. […] PARI had no effect on iCa at 0.33 mcg/kg whereas the iCa ratio increased modestly to 1.05±0.02*# at 0.66 mcg/kg, less than that of DOX. The Day 13/Day 0 PTH ratios for DOX fell to 0.43±0.12, 0.26±0.06*, and 0.22±0.11* in response to 0.18, 0.33, 0.66 mcg/kg, respectively, while PARI decreased PTH ratios to 0.37±0.07*, 0.33±0.06*, 0.13±0.02*. Serum phosphorus was not affected in any treatment group. […] Thus, in the uremic rat with established SHPT, DOX suppresses serum PTH levels concomitant with dose-dependent elevations in ionized calcium greater than those caused by equal doses of. PARI. At these doses, PARI effectively reduces PTH without eliciting dose-dependent changes in ionized blood calcium. *=p<0.05 vs. VEH ANOVA; # p<0.05 unpaired t test DOX vs PARI

[9] = Active calcium transport in duodenum ex vivo; parameters: species or system rat; settings: uremic rats with SHPT
renin [10] = assay: In vivo renin inhibition in CD-1 male mice; parameters: species or system mouse; settings: 1.5 and 3.0 μg/kg i.p. 3 times a week for three weeks
[11] = Renin mRNA expression in vitamin D-deficient rats; format: in vivo, rat; settings: 0.003-0.3 μg/kg i.p. three times per week, 2 weeks
Protocol: (§3) Weanling Sprague-Dawley male rats housed in an environment free of UV light were fed a 0.4% Ca, 0.3% P, vitamin D-deficient diet for 5 weeks, then switched to a 0.02% Ca, 0.5% P, vitamin D-deficient diet for 21 days. Rats were dosed with 0.003, 0.01, 0.03, and 0.3 μg/kg of paricalcitol, i.p., three times per week, for the final 2 weeks. A control group of animals was given vehicle only (5% ethanol/95% propylene glycol), and untreated, age-matched animals on normal diet (0.5% Ca, 0.4% P) served as normal peer control. Twenty-four hours after the last dose, the rats were anesthetized with ketamine (100 mg/kg), cardiac bled, killed by CO2, tissues collected for RNA extraction and real-time RT-PCR analysis, and serum taken for determination of calcium, phosphorus, and PTH.

renin [12] = assay: Renin mRNA expression in vitamin D-deficient rats; format: in vivo, rat; settings: 0.003-0.3 μg/kg i.p. three times per week, 2 weeks
Protocol: as §3

[13] = Dobrez et al. 2004; cited from earlier work
[14] = 1-100 nM, cells in N1 or 60% N1/40% P1 media, 5 days
[15] = 0.18 mcg/kg IP 3 times/week for 12 days
[16] = 0.33 mcg/kg IP 3 times/week for 12 days
[17] = 0.66 mcg/kg IP 3 times/week for 12 days

Structure (SMILES) | median number of days spent in the hospital (hospital days per year) [1] [days] | median number of hospitalizations in a year [1] | fewer hospital days compared to the No Vitamin D group [1] [days] | fewer hospitalizations compared to the No Vitamin D group [1] | potency in reducing the PAI level (PAI-1 [2]) | effect on 45Ca uptake (human CASMC; [14]) | elevation of iCa [6] [%] | Ca content in aorta compared to vehicle [6] [fold] | phosphorus content in aorta compared to vehicle [6] | 45Ca uptake in aorta rings compared to vehicle [6] | Day 13/Day 0 PTH ratio [8, 15] | Day 13/Day 0 PTH ratio [8, 16] | Day 13/Day 0 PTH ratio [8, 17] | active calcium transport in duodenum ex vivo [9] | also measured
C=C1/C(=C\C=C2/CCC[C@]3(C)[C@@H]([C@H](C)CCCC(C)(C)O)CC[C@@H]23)C[C@@H](O)C[C@@H]1O [calcitriol] | 10.6 | 2.2 | 7.7 | no statistical difference | equally potent | no significant effects |  |  |  |  |  |  |  |  | calcification of bovine vascular smooth muscle cells [3]: dose dependent increase
C[C@H](/C=C/[C@H](C)C(C)(C)O)[C@H]1CC[C@H]2/C(=C/C=C3C[C@@H](O)C[C@H](O)C3)CCC[C@]12C [paricalcitol] | 5.2 | 1.5 | 17.5 | 1.2 | equally potent | no significant effects | ~25 | 1.6 | no significant difference | no significant difference | 0.37±0.07 | 0.33±0.06 | 0.13±0.02 | no effect | renin-inhibiting potency relative to calcitriol / 1,25(OH)2D3 [4]: comparable to that of 1,25(OH)2D3; also recorded: a bit more potent than calcitriol; effect on renin mRNA expression ([4]; 10^-10 to 10^-7 M, 24 hours): suppresses; also recorded: dose-dependently inhibits; potency in suppressing renin gene promoter activity relative to calcitriol / 1,25(OH)2D3 (renin gene promoter): comparable to that of 1,25(OH)2D3; also recorded: at least as potent as calcitriol; effect on renin gene transcription (renin gene promoter; As4.1-hVDR cells): suppresses; potency on stimulating the expression of 24(OH)ase (24(OH)ase): less potent than calcitriol; total number of vascular access changes (average) ([5]; HD patients with AV fistula, p=0.0034 vs no D): 0.6 changes per year; more vascular access changes in No D group than in Zemplar patients ([5]; negative binomial regression, p=0.038): 28%; effect on 45Ca uptake (human CASMC; 100 nM, cells in N1 medium or different doses of P1 medium (20-60%)): did not show a significant effect; CYP24A1 mRNA expression (CYP24A1): stimulated; PAI-1 mRNA expression (PAI-1 [7]): suppressed; body weight (renin [10]): no effect; levels of blood ionized calcium (renin [10]): only slightly increased; calcium [11]: did not result in a significant change; serum PTH [11]: reduced serum PTH dose-dependently; renal renin mRNA expression (renin [12]): normalized; hospitalizations related to cardiovascular events and non-infectious inflammations compared with calcitriol [13]: fewer hospitalizations
C=C1/C(=C\C=C2/CCC[C@]3(C)[C@@H]([C@H](C)/C=C/[C@H](C)C(C)C)CC[C@@H]23)C[C@@H](O)C[C@@H]1O [doxercalciferol] |  |  |  |  |  |  | ~25 | 1.0 | 17 fold | 40 fold | 0.43±0.12 | 0.26±0.06 | 0.22±0.11 | dose-dependent increase | 
